{"source": "paper PMC9138090", "about": "“Study on the Neuroprotective, Radical-Scavenging and MAO-B Inhibiting Properties of New Benzimidazole Arylhydrazones as Potential Multi-Target Drugs for the Treatment of Parkinson’s Disease” (Antioxidants, 2022)", "key": {"[1]": {"assay": "MTT cytotoxicity on SH-SY5Y cells", "format": "cell-based, human", "conditions": "human, SH-SY5Y neuroblastoma cells, MTT test, 24 h incubation; read-out: IC50, in vitro cytotoxicity on SH-SY5Y cells", "experimental": "(§1) Human neuroblastoma cell line SH-SY5Y was obtained from the European Collection of Cell Cultures (ECACC, Salisbury, UK). The cells were maintained in 75 cm^2 flasks at 37 °C in a humidified atmosphere with 5% CO2 and cultured in RPMI 1640 medium, supplemented with 10% fetal bovine serum and 2 mM L-glutamine.\n(§2) MTT (Sigma-Aldrich Chemie GmbH, Schnelldorf, Germany) assay is based on interaction between tetrazolium dye 3-(4,5-dimethylthiazol-2-yl)-2,5-diphenyltetrazolium bromide and succinic dehydrogenase in the living cells’ mitochondria. In this reaction, the formed purple formazan crystals indicate the presence of viable cells. SH-SY5Y cells were seeded in 96-well microplates at a density 2.5 × 10^4 cells/well and allowed to attach to the well surface at 37 °C in a humidified atmosphere with 5% CO2 (24 h). Different concentrations of compounds ([…]) were added to cells and incubated for 24 h. For each concentration, a set of at least 8 wells were used. After the treatment, the solution in each well was substituted with MTT (3-(4,5-dimethylthiazol-2-yl)-2,5-diphenyltetrazolium bromide) solution (0.5 mg/mL in culture medium). The microplates were further incubated for 3 h at 37 °C and the obtained formazan crystals were dissolved by 100 µL/well of DMSO. The absorbance was measured in a multiplate reader Synergy 2 (BioTek Instruments, Inc, Highland Park, Winooski, VT, USA) at 570 nm (690 nm for background absorbance).\n(§3) An important step in the development of new pharmacologically active compounds is the establishment of their safety profile. An in vitro toxicity evaluation was carried out on the neuroblastoma cell line SH-SY5Y, which is a well-established model in neuroscience. The neuroblastoma SH-SY5Y are human derived cells with relatively homogeneous neuroblast-like structure. The cells express a dopamine-β-hydroxylase and tyrosine hydroxylase enzyme activity, specific types of human proteins and protein isoforms. The possible neurotoxic effects of the potential drug candidates were measured by cell viability assay (MTT-test). The IC50 values were used as a robust parameter for comparison. The test compounds were dissolved in DMSO and serially diluted in cell culture medium to achieve final concentrations ranging from 1 to 500 µM; the culture medium containing DMSO in the corresponding concentration was used as untreated controls. A concentration dependent effect on cell viability was observed after 24 h incubation."}, "[2]": {"tested_on": "SH-SY5Y cells", "assay": "MTT cytotoxicity on SH-SY5Y cells", "format": "cell-based, human", "conditions": "MTT test, 24 h incubation; read-out: IC50, in vitro cytotoxicity on SH-SY5Y cells", "experimental": "as §1, §2, §3"}, "[3]": {"assay": "Superoxide scavenging, xanthine/xanthine oxidase NBT assay", "format": "biochemical", "conditions": "for change in sample absorbance vs. controls (in words): whole tested concentration range", "experimental": "Superoxide radicals scavenging activity (enzymatic assay): The assay comprises the preparation of 1 mL PBS samples containing the following substances: 1 mmol/l xanthine; 20 µL xanthine oxidase (100 IU/L); 0.04 mmol/L NBT; either the tested hydrazone or buffer for the controls. The samples were incubated at 37 °C and the absorbance was measured at 560 nm.\nThe results from both assays have been presented as a percentage of the control sample.\nThe potency of the compounds selected as the most promising from the cell model systems and hMAOB inhibitory studies was estimated against enzymatically (xanthine/XO system) and non-enzymatically (KO2/NBT) produced superoxide radicals (Figure 7). In the xanthine-xanthine oxidase system the generation of O2^−^● is a result of an enzymatic reaction. The molecular mechanism of action of the XO enzyme is associated with catalysation of the reaction of oxidation of hypoxanthine and xanthine and generation of uric acid. During the process of reoxidation of the enzyme, the molecular oxygen acts as an electron acceptor and the formation of physiologically important ROS, such as the superoxide radical (O2^−^●) and hydrogen peroxide (H2O2), has been observed. In the potassium superoxide-containing systems, superoxide radical generation is due to the direct addition of the KO2 to the water sample solution. The release of a superoxide anion was estimated via NBT reduction activity, indicating detectable superoxide anion levels. The application of these two alternative model systems will afford the possibility to perform a more accurate interpretation of the obtained results. Since in the enzyme-free model system, the release of the superoxide in the small sample volume is a very fast process, there is a risk of local effects that is avoided in the xanthine-xanthine oxidase system. The use of enzyme reaction provides a relatively slow generation of the superoxide radical and steady concentration."}, "[4]": {"tested_on": "rat brain synaptosomes", "assay": "GSH level in isolated synaptosomes, toxicity evaluation", "format": "cell-based", "conditions": "concentrations < 250 µM (1 to 250 µM tested)", "experimental": "Synaptosomes were prepared from brains of adult male Wistar rats. The brains were homogenized in 10 volume of cold buffer 1, containing 5 mM HEPES and 0.32 M sucrose (pH = 7.4). The brain homogenate was centrifuged twice at 1000× g for 5 min at 4 °C. The supernatant was collected and centrifuged 3 times at 10,000× g for 20 min at 4 °C. The pellet was re-suspended in ice-cold buffer 1. The synaptosomes were isolated by using Percoll reagent to prepare the gradient. Synaptosomes were re-suspended and incubated in buffer 2, containing 290 mM NaCl, 0.95 mM MgCl2 × 6H2O, 10 mM KCl, 2.4 mM CaCl2 × H2O, 2.1 mM NaH2PO4, 44 mM HEPES, and 13 mM D-glucose. Incubations were performed in a 5% CO2 + 95% O2 atmosphere. The content of synaptosomal protein was determined according to the method of Lowry et al. using bovine serum albumin as a standard.\nFollowing treatment with the tested compounds, the glutathione levels were determined using Ellman reagent (DTNB), which forms color complexes with the SH group at pH = 8, with maximum absorbance at 412 nm. The synaptosomes were centrifuged at 500× g for 1 min and the sediment was used to measure GSH level. The sediment was precipitated with 5% TCA, then centrifuged for 10 min at 4000× g and the GSH level in the supernatant was measured using DTNB spectrophotometrically at 412 nm. The biochemical parameters were determined by spectrophotometric methods using a Spectro UV-VIS Split spectrophotometer (LaboMed.Inc, Los Angeles, CA, USA).\nThe low toxicity and substantial neuroprotective properties shown by some of the potential drug candidates in human neuroblastoma SH-SY5Y cells directed the experimental work to be elaborated on a different cellular in vitro model using freshly isolated rat brain synaptosomes for the evaluation of the protective effects and toxicity of selected promising compounds [56]. The rat brain synaptosomes represent a terminal part of the axons and contain synaptic vesicles, mitochondria, lysosomes, parts of the cell membrane, neurotransmitters, which diffuse across the synaptic cleft. Besides the presynaptic membrane, a part of postsynaptic membrane with the postsynaptic density is often attached to the nerve ending. In their experiments, Student and Edwards examined the subcellular localization of the A and B forms of MAO in rat brain. […] The authors conclude from the data that MAO-B activity is, indeed, associated with synaptosomes and may be non-uniformly located among different populations of synaptic endings. The functional-metabolic status of the synaptosomes was evaluated by measuring the synaptosomal viability (MTT assay) and the levels of reduced gluthathione (GSH) (Figure 2). […]"}}, "note": "Entries after “also recorded” stand apart in the source; their conditions may differ.", "data": [{"molecule": "O=C(CCn1c(=S)n(CCC(=O)NN=Cc2ccccc2O)c2ccccc21)NN=Cc1ccccc1O", "note": "[3e, 3,3′-(2-Thioxo-1H-benzo[d]imidazole-1,3(2H)-diyl)bis(N′-(2-hydroxybenzylidene)propanehydrazide)]", "values": [{"measurement": "IC50 at 24 h", "setting": "[1]", "result": "> 200", "unit": "µM"}, {"measurement": "IC50", "setting": "[2]", "result": 235, "unit": "µM"}, {"measurement": "change in sample absorbance vs. controls (in words)", "setting": "[3]", "result": "did not induce statistically significant change"}, {"measurement": "effect on level of GSH in synaptosomes", "setting": "[4]", "result": "did not change"}, {"measurement": "melting point", "result": "272 to 273", "unit": "°C"}]}, {"molecule": "O=C(CCn1c(=S)n(CCC(=O)NN=Cc2cccc(O)c2O)c2ccccc21)NN=Cc1cccc(O)c1O", "note": "[3h, 3,3′-(2-Thioxo-1H-benzo[d]imidazole-1,3(2H)-diyl)bis(N′-(2,3-dihydroxybenzylidene)propanehydrazide)]", "values": [{"measurement": "IC50 at 24 h", "setting": "[1]", "result": "> 250", "unit": "µM"}, {"measurement": "IC50", "setting": "[2]", "result": 296, "unit": "µM"}, {"measurement": "% of the control ratio, NBT reduction", "setting": "[3]; maximal tested concentration", "result": 64, "unit": "%"}, {"measurement": "effect on level of GSH in synaptosomes", "setting": "[4]", "result": "did not significantly reduce; also recorded: did not change"}, {"measurement": "melting point", "result": "246 to 248", "unit": "°C"}]}, {"molecule": "O=C(CCn1c(=S)n(CCC(=O)NN=Cc2ccc(O)cc2O)c2ccccc21)NN=Cc1ccc(O)cc1O", "note": "[3i, 3,3′-(2-Thioxo-1H-benzo[d]imidazole-1,3(2H)-diyl)bis(N′-(2,4-dihydroxybenzylidene)propanehydrazide)]", "values": [{"measurement": "IC50 at 24 h", "setting": "[1]", "result": "> 250", "unit": "µM"}, {"measurement": "IC50", "setting": "[2]", "result": 301, "unit": "µM"}, {"measurement": "decrease of NBT reduction", "setting": "[3]; xanthine/xanthine oxidase assay", "result": 15, "unit": "%"}, {"measurement": "effect on level of GSH in synaptosomes", "setting": "[4]", "result": "did not significantly reduce; also recorded: did not change"}, {"measurement": "melting point", "result": "254 to 256", "unit": "°C"}]}, {"molecule": "COc1ccc(C=NNC(=O)CCn2c(=S)n(CCC(=O)NN=Cc3ccc(OC)cc3O)c3ccccc32)c(O)c1", "note": "[3m, 3,3′-(2-Thioxo-1H-benzo[d]imidazole-1,3(2H)-diyl)bis(N′-(2-hydroxy-4-methoxybenzylidene)propanehydrazide)]", "values": [{"measurement": "IC50 at 24 h", "setting": "[1]", "result": "> 200", "unit": "µM"}, {"measurement": "IC50", "setting": "[2]", "result": 211, "unit": "µM"}, {"measurement": "change in sample absorbance vs. controls (in words)", "setting": "[3]", "result": "did not induce statistically significant change"}, {"measurement": "effect on level of GSH in synaptosomes", "setting": "[4]", "result": "did not change"}, {"measurement": "melting point", "result": "247 to 249", "unit": "°C"}]}]}
